pEC50: −log10 of the molar value.
Target: T1, KCNQ 2/3 channels (HEK293 cells stably expressing human KCNQ2 and KCNQ3 subunits) (Homo sapiens, UniProt O43525+O43526)
T1 construct: expressed in transfected cells; host or cells: HEK293
Test: KCNQ2/3 channel activation, thallium flux FLIPR assay (BTC-AM dye)
Format: cell-based
Details: for Emax: HEK293, maximum response relative to response of retigabine at 10 μM (set at 100%), read-out: Max. %; for pEC50: HEK293 cells expressing human KCNQ2 and KCNQ3, FLIPR thallium flux
Method: The following example describes the assay that can be used to identify compounds that activate KCNQ 2/3 channels.
HEK293 cells stably expressing human KCNQ2 and KCNQ3 subunits were seeded in 96-well, black-walled, clear-bottomed, poly-D-lysine coated plates (BD Biosciences, Bedford, Mass.) at a density of 1×10^5 cells per well 24 hours before the assay. On the assay day, BTC-AM dye (Invitrogen, Carlsbad, Calif.) was loaded into the cells by replacing the cell culture medium with 100 μL/well of 4 μM dye in DPBS. Dye loading was allowed to proceed for 2 hours at room temperature and then cells were washed twice in 100 μL/well of assay buffer (in mM: 10 HEPES pH 7.3, 5 glucose, 140 Na-gluconate, 2.5 K-gluconate, 3.6 Ca-gluconate, 2 MgSO4, 0.1 Ouabain) to remove unloaded dye. Cells were incubated in 50 μL of assay buffer before loading onto a FLIPR system (Molecular Devices, Sunnyvale, Calif.). Various concentrations of compounds to be assayed were added to the cells in 50 μL of assay buffer and incubated for 4 minutes. The fluorescence signal was initiated by adding 100 μL of assay buffer containing 6 mM TlNO3 and 10 mM K2SO4. Fluors were excited using the 488-nm line of an argon laser and emission was filtered using a 540±30 nm bandpass filter. Fluorescent signals were recorded for 3 minutes. Responses over baseline values were plotted versus concentrations of test compounds to obtain an EC50 value. The maximum response for each test compound was determined relative to the response produced at 10 μM by retigabine. The maximum response of retigabine at 10 μM was set at 100%.

Emax [%] | pEC50 | SMILES
156 | 5.00 to 6.00 | COc1ccc(CC(=O)Nc2nn3cc(C)cnc3c2CC(C)(C)C)cc1 [Example 18, N-[3-(2,2-dimethylpropyl)-6-methylpyrazolo[1,5-a]pyrimidin-2-yl]-2-(4-methoxyphenyl)acetamide]
206 | 6.30 to 7.00 | Cc1cc(C)n2nc(NC(=O)Cc3ccc(F)cc3)c(-c3ccccc3)c2n1 [Example 96, N-(5,7-dimethyl-3-phenylpyrazolo[1,5-a]pyrimidin-2-yl)-2-(4-fluorophenyl)acetamide]
66 | < 5.00 | O=C(Cc1ccc(F)cc1)Nc1nn2cccnc2c1-c1ccc(OC(F)(F)F)cc1 [Example 140, 2-(4-fluorophenyl)-N-{3-[4-(trifluoromethoxy)phenyl]pyrazolo[1,5-a]pyrimidin-2-yl}acetamide]
154 | 6.00 to 6.30 | COc1cccc(CC(=O)Nc2nn3cc(C)cnc3c2-c2ccc(F)cc2)c1 [Example 26, N-[3-(4-fluorophenyl)-6-methylpyrazolo[1,5-a]pyrimidin-2-yl]-2-(3-methoxyphenyl)acetamide]
174 | 5.00 to 6.00 | COc1ccc(CC(=O)Nc2nn3c(C)cc(C)nc3c2CC(C)(C)C)cc1 [Example 16, N-[3-(2,2-dimethylpropyl)-5,7-dimethylpyrazolo[1,5-a]pyrimidin-2-yl]-2-(4-methoxyphenyl)acetamide]
120 | > 7.00 | Cc1cnc2c(-c3ccc(C)c(F)c3)c(NC(=O)CCC3CCCC3)nn2c1 [Example 20, 3-cyclopentyl-N-[3-(3-fluoro-4-methylphenyl)-6-methylpyrazolo[1,5-a]pyrimidin-2-yl]propanamide]
267 | > 7.00 | Cc1cnc2c(CC(C)(C)C)c(NC(=O)CCC3CCCCC3)nn2c1 [Example 17, 3-cyclohexyl-N-[3-(2,2-dimethylpropyl)-6-methylpyrazolo[1,5-a]pyrimidin-2-yl]propanamide]
21 | < 5.00 | Cc1cnc2c(-c3ccc(F)c(C)c3)c(NC(=O)C[S+]([O-])C3CCCC3)nn2c1 (stereo not drawn) [Example 173, 2-(cyclopentylsulfinyl)-N-[3-(4-fluoro-3-methylphenyl)-6-methylpyrazolo[1,5-a]pyrimidin-2-yl]acetamide]
56 | 6.30 to 7.00 | Cc1ccnc2c(-c3cccc(C(F)(F)F)c3)c(NC(=O)CCC3CCCCC3)nn12 [Example 65, 3-cyclohexyl-N-{7-methyl-3-[3-(trifluoromethyl)phenyl]pyrazolo[1,5-a]pyrimidin-2-yl}propanamide]
182 | 6.30 to 7.00 | CCC1(c2c(NC(=O)CCC3CCCC3)nn3cccnc23)CCCCC1 [Example 145, 3-cyclopentyl-N-[3-(1-ethylcyclohexyl)pyrazolo[1,5-a]pyrimidin-2-yl]propanamide]
143 | > 7.00 | Cc1cc(C)n2nc(NC(=O)CC3CCCC3)c(-c3cccc(Cl)c3)c2n1 [Example 53, N-[3-(3-chlorophenyl)-5,7-dimethylpyrazolo[1,5-a]pyrimidin-2-yl]-2-cyclopentylacetamide]
6 | < 5.00 | Cc1ccccc1-c1c(NC(=O)CC(C)(C)C)nn2cccnc12 [Example 141, 3,3-dimethyl-N-[3-(2-methylphenyl)pyrazolo[1,5-a]pyrimidin-2-yl]butanamide]
124 | 5.00 to 6.00 | CC(C)(C)CCC(=O)Nc1nn2cccnc2c1C(C)(C)C [Example 170, N-(3-tert-butylpyrazolo[1,5-a]pyrimidin-2-yl)-4,4-dimethylpentanamide]
126 | 6.00 to 6.30 | Cc1cnc2c(-c3ccc(F)c(C)c3)c(NC(=O)CCC(C)(C)C)nn2c1 [Example 164, N-[3-(4-fluoro-3-methylphenyl)-6-methylpyrazolo[1,5-a]pyrimidin-2-yl]-4,4-dimethylpentanamide]
7 | < 5.00 | CC(C)c1c(NC(=O)COC2CCCC2)nn2cccnc12 [Example 133, 2-(cyclopentyloxy)-N-(3-isopropylpyrazolo[1,5-a]pyrimidin-2-yl)acetamide]
8 | < 5.00 | O=C(Nc1nn2cccnc2c1-c1ccc(Cl)cc1)NC1CCCCC1 [Example 108, 1-[3-(4-chlorophenyl)pyrazolo[1,5-a]pyrimidin-2-yl]-3-cyclohexylurea]
8 | < 5.00 | CC(C)(C)c1c(NC(=O)/C=C/c2ccccc2)nn2cccnc12 [Example 136, (2E)-N-(3-tert-butylpyrazolo[1,5-a]pyrimidin-2-yl)-3-phenylacrylamide]

Emax [%] | pEC50 | SMILES
8 | < 5.00 | COc1cc(CC(=O)Nc2nn3cccnc3c2-c2ccc(Cl)cc2)cc(OC)c1 [Example 109, N-[3-(4-chlorophenyl)pyrazolo[1,5-a]pyrimidin-2-yl]-2-(3,5-dimethoxyphenyl)acetamide]
127 | 6.00 to 6.30 | Cc1cnc2c(-c3ccc(F)c(C)c3)c(NC(=O)CC(C)(C)c3ccccc3)nn2c1 [Example 149, N-[3-(4-fluoro-3-methylphenyl)-6-methylpyrazolo[1,5-a]pyrimidin-2-yl]-3-methyl-3-phenylbutanamide]
130 | 6.30 to 7.00 | O=C(CC1CC2CCC1C2)Nc1nn2cccnc2c1-c1ccc(OC(F)(F)F)cc1 (racemic) [Example 124, (±)-exo-2-bicyclo[2.2.1]hept-2-yl-N-{3-[4-(trifluoromethoxy)phenyl]pyrazolo[1,5-a]pyrimidin-2-yl}acetamide]
11 | < 5.00 | Cc1cc(C)n2nc(NC(=O)COC3CCCC3)c(-c3ccc(Cl)c(C)c3)c2n1 [Example 134, N-[3-(4-chloro-3-methylphenyl)-5,7-dimethylpyrazolo[1,5-a]pyrimidin-2-yl]-2-(cyclopentyloxy)acetamide]
113 | < 5.00 | O=C(CC1CCCC1)Nc1nn2cccnc2c1-c1cccc(C(F)(F)F)c1 [Example 64, 2-cyclopentyl-N-{3-[3-(trifluoromethyl)phenyl]pyrazolo[1,5-a]pyrimidin-2-yl}acetamide]
136 | 5.00 to 6.00 | COc1cccc(CC(=O)Nc2nn3c(C)ccnc3c2-c2ccc(Cl)cc2)c1 [Example 41, N-[3-(4-chlorophenyl)-7-methylpyrazolo[1,5-a]pyrimidin-2-yl]-2-(3-methoxyphenyl)acetamide]
98 | 5.00 to 6.00 | C/C=C/c1c(NC(=O)CC(C)(C)C)nn2cccnc12 [Example 167, 3,3-dimethyl-N-{3-[(1E)-prop-1-en-1-yl]pyrazolo[1,5-a]pyrimidin-2-yl}butanamide]
139 | 6.30 to 7.00 | Cc1cnc2c(-c3cccc(F)c3)c(NC(=O)CC3CCCC3)nn2c1 [Example 83, 2-cyclopentyl-N-[3-(3-fluorophenyl)-6-methylpyrazolo[1,5-a]pyrimidin-2-yl]acetamide]
154 | 6.00 to 6.30 | CC(C)c1ccc(CC(=O)Nc2nn3cccnc3c2C(C)(C)C)cc1 [Example 166, N-(3-tert-butylpyrazolo[1,5-a]pyrimidin-2-yl)-2-(4-isopropylphenyl)acetamide]
151 | > 7.00 | Cc1cnc2c(C(C)(C)C)c(NC(=O)CCC3CCCC3)nn2c1 [Example 179, N-(3-tert-butyl-6-methylpyrazolo[1,5-a]pyrimidin-2-yl)-3-cyclopentylpropanamide]
156 | 5.00 to 6.00 | CC(C)(C)Cc1c(NC(=O)CCc2ccccc2)nn2cccnc12 [Example 10, N-[3-(2,2-dimethylpropyl)pyrazolo[1,5-a]pyrimidin-2-yl]-3-phenylpropanamide]
77 | 5.00 to 6.00 | Cc1ccc(-c2c(NC(=O)Cc3ccccc3)nn3cccnc23)cc1F [Example 19, N-[3-(3-fluoro-4-methylphenyl)pyrazolo[1,5-a]pyrimidin-2-yl]-2-phenylacetamide]
188 | 5.00 to 6.00 | CC(C)(C)c1c(NC(=O)CC2CCCC2)nn2cccnc12 [Example 154, N-(3-tert-butylpyrazolo[1,5-a]pyrimidin-2-yl)-2-cyclopentylacetamide]
160 | < 5.00 | COc1ccc(CC(=O)Nc2nn3c(C)ccnc3c2CC(C)(C)C)cc1 [Example 36, N-[3-(2,2-dimethylpropyl)-7-methylpyrazolo[1,5-a]pyrimidin-2-yl]-2-(4-methoxyphenyl)acetamide]
132 | 6.30 to 7.00 | Cc1cnc2c(-c3cccc(F)c3)c(NC(=O)Cc3ccc(F)cc3)nn2c1 [Example 84, 2-(4-fluorophenyl)-N-[3-(3-fluorophenyl)-6-methylpyrazolo[1,5-a]pyrimidin-2-yl]acetamide]
166 | > 7.00 | Cc1ccnc2c(CC(C)(C)C)c(NC(=O)CCC3CCCCC3)nn12 [Example 37, 3-cyclohexyl-N-[3-(2,2-dimethylpropyl)-7-methylpyrazolo[1,5-a]pyrimidin-2-yl]propanamide]
